Measured values published in US12077503B2, “Substituted cyclic amides and their use as herbicides” (FMC CORPORATION, priority 2015, dated 2024).

Key:
Format in all cases: in vivo
[1] = test system: ragweed (common ragweed, Ambrosia elatior); test: Test A preemergence; conditions: Ambrosia artemisiifolia, pre-emergence, 240 h, Preemergence; for pest or weed control at 31 g/ha: 31 g ai/ha, 0 to 100 scale where 0 is no effect and 100 is complete control, read-out: Ragweed plant response rating; for pest or weed control at 125 g/ha: 125 g ai/ha, 0 to 100 scale (0 no effect, 100 complete control), read-out: Plant response rating, Ragweed
Summary of the method: (§1)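 Seeded soil received test chemicals as a preemergence directed spray, and seedlings at one to two leaves, 2–10 cm tall, received them postemergence, in a non-phytotoxic, surfactant-containing solvent mixture. Pots were held in a greenhouse for approximately 10 d, then rated for injury from 0, no effect, to 100, complete control.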

[2] = test system: pigweed (Amaranthus retroflexus); test: Test A preemergence; conditions: Amaranthus retroflexus, pre-emergence, 240 h, Preemergence; for pest or weed control at 31 g/ha: 31 g ai/ha, 0 to 100 scale where 0 is no effect and 100 is complete control, read-out: Pigweed plant response rating; for pest or weed control at 125 g/ha: 125 g ai/ha, 0 to 100 scale (0 no effect, 100 complete control), read-out: Plant response rating, Pigweed
[3] = test system: ryegrass, Italian (Italian ryegrass, Lolium multiflorum); test: Test A preemergence; conditions: Lolium multiflorum, pre-emergence, 240 h, Preemergence; for pest or weed control at 31 g/ha: 31 g ai/ha, 0 to 100 scale where 0 is no effect and 100 is complete control, read-out: Ryegrass, Italian plant response rating; for pest or weed control at 125 g/ha: 125 g ai/ha, 0 to 100 scale (0 no effect, 100 complete control), read-out: Plant response rating, Ryegrass, Italian
Summary of the method: as §1

[4] = test system: barnyardgrass (Echinochloa crus-galli); test: Test A preemergence; conditions: Echinochloa crus-galli, pre-emergence, 240 h, Preemergence; for pest or weed control at 31 g/ha: 31 g ai/ha, 0 to 100 scale where 0 is no effect and 100 is complete control, read-out: Barnyardgrass plant response rating; for pest or weed control at 125 g/ha: 125 g ai/ha, 0 to 100 scale (0 no effect, 100 complete control), read-out: Plant response rating, Barnyardgrass
Summary of the method: as §1

[5] = test system: giant foxtail (Setaria faberii); test: Test A preemergence; conditions: Setaria faberi, pre-emergence, 240 h, Preemergence; for pest or weed control at 31 g/ha: 31 g ai/ha, 0 to 100 scale where 0 is no effect and 100 is complete control, read-out: Foxtail, Giant plant response rating; for pest or weed control at 125 g/ha: 125 g ai/ha, 0 to 100 scale (0 no effect, 100 complete control), read-out: Plant response rating, Foxtail, Giant
Summary of the method: as §1

Kochia (Kochia scoparia) [6] = test: Test A preemergence; conditions: Bassia scoparia, pre-emergence, 240 h, Preemergence; for pest or weed control at 31 g/ha: 31 g ai/ha, 0 to 100 scale where 0 is no effect and 100 is complete control, read-out: Kochia plant response rating; for pest or weed control at 125 g/ha: 125 g ai/ha, 0 to 100 scale (0 no effect, 100 complete control), read-out: Plant response rating, Kochia
Summary of the method: as §1

[7] = test system: barnyardgrass (Echinochloa crus-galli); test: Test B flooded paddy test; conditions: Echinochloa crus-galli, 360 h, Flood, 250 g ai/ha; visually evaluated after 13 to 15 d; read-out: Plant response rating, Barnyardgrass (0 to 100 scale where 0 is no effect and 100 is complete control)
Summary of the method: (§2)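 Greenhouse paddy pots with 2-leaf stage plants received compound by direct addition to floodwater 3 cm deep, kept at that level. Scored visually at 13–15 d versus controls (0 no effect; 100 complete control).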

rice (Oryra sativa) = test: Test B flooded paddy test; conditions: Oryza sativa, 360 h, Flood, 250 g ai/ha; visually evaluated after 13 to 15 d; read-out: Plant response rating, Rice (0 to 100 scale where 0 is no effect and 100 is complete control)
Summary of the method: as §2

[8] = test system: ducksalad (Heteranthera limosa); test: Test B flooded paddy test; conditions: Heteranthera limosa, 360 h, Flood, 250 g ai/ha; visually evaluated after 13 to 15 d; read-out: Plant response rating, Ducksalad (0 to 100 scale where 0 is no effect and 100 is complete control)
Summary of the method: as §2

[9] = test system: sedge, umbrella (small-flower umbrella sedge, Cyperus difformis); test: Test B flooded paddy test; conditions: Cyperus difformis, 360 h, Flood, 250 g ai/ha; visually evaluated after 13 to 15 d; read-out: Plant response rating, Sedge, Umbrella (0 to 100 scale where 0 is no effect and 100 is complete control)
Summary of the method: as §2

[10] = test system: ragweed (common ragweed, Ambrosia elatior); test: Test A postemergence; conditions: Ambrosia artemisiifolia, post-emergence, 240 h, Postemergence, read-out: Ragweed plant response rating (0 to 100 scale); for pest or weed control at 125 g/ha: 125 g ai/ha, visual rating about 10 d after treatment; for pest or weed control at 31 g/ha: 31 g ai/ha, 0 is no effect, 100 is complete control
Summary of the method: as §1

[11] = test system: pigweed (Amaranthus retroflexus); test: Test A postemergence; conditions: Amaranthus retroflexus, post-emergence, 240 h, Postemergence, read-out: Pigweed plant response rating (0 to 100 scale); for pest or weed control at 125 g/ha: 125 g ai/ha, visual rating about 10 d after treatment; for pest or weed control at 31 g/ha: 31 g ai/ha, 0 is no effect, 100 is complete control
Summary of the method: as §1

[12] = test system: ryegrass, Italian (Italian ryegrass, Lolium multiflorum); test: Test A postemergence; conditions: Lolium multiflorum, post-emergence, 240 h, Postemergence, read-out: Ryegrass, Italian plant response rating (0 to 100 scale); for pest or weed control at 125 g/ha: 125 g ai/ha, visual rating about 10 d after treatment; for pest or weed control at 31 g/ha: 31 g ai/ha, 0 is no effect, 100 is complete control
Summary of the method: as §1

[13] = test system: barnyardgrass (Echinochloa crus-galli); test: Test A postemergence; conditions: Echinochloa crus-galli, post-emergence, 240 h, Postemergence; for pest or weed control at 125 g/ha: 125 g ai/ha, visual rating about 10 d after treatment, read-out: Barnyardgrass plant response rating (0 to 100 scale, 0 no effect, 100 complete control); for pest or weed control at 31 g/ha: 31 g ai/ha, 0 is no effect, 100 is complete control, read-out: Barnyardgrass plant response rating (0 to 100 scale)
Summary of the method: as §1

corn (Zea mays) = test: Test A postemergence; conditions: Zea mays, post-emergence, 240 h, Postemergence, read-out: Corn plant response rating (0 to 100 scale); for plant injury at 125 g/ha: 125 g ai/ha, visual rating about 10 d after treatment; for plant injury at 31 g/ha: 31 g ai/ha, 0 is no effect, 100 is complete control
Summary of the method: as §1

[14] = test system: blackgrass (Alopecurus myosuroides); test: Test A postemergence; conditions: Alopecurus myosuroides, post-emergence, 240 h, Postemergence, read-out: Blackgrass plant response rating (0 to 100 scale); for pest or weed control at 125 g/ha: 125 g ai/ha, visual rating about 10 d after treatment; for pest or weed control at 31 g/ha: 31 g ai/ha, 0 is no effect, 100 is complete control
Summary of the method: as §1

[15] = test system: wheat (Triticum aestivum); test: Test A postemergence; conditions: Triticum aestivum, post-emergence, 240 h, Postemergence, read-out: Wheat plant response rating (0 to 100 scale); for plant injury at 125 g/ha: 125 g ai/ha, visual rating about 10 d after treatment; for plant injury at 31 g/ha: 31 g ai/ha, 0 is no effect, 100 is complete control
Summary of the method: as §1

[16] = test system: giant foxtail (Setaria faberii); test: Test A postemergence; conditions: Setaria faberi, post-emergence, 240 h, Postemergence, read-out: Foxtail, Giant plant response rating (0 to 100 scale); for pest or weed control at 125 g/ha: 125 g ai/ha, visual rating about 10 d after treatment; for pest or weed control at 31 g/ha: 31 g ai/ha, 0 is no effect, 100 is complete control
Summary of the method: as §1

Kochia (Kochia scoparia) [17] = test: Test A postemergence; conditions: Bassia scoparia, post-emergence, 240 h, Postemergence, read-out: Kochia plant response rating (0 to 100 scale); for pest or weed control at 125 g/ha: 125 g ai/ha, visual rating about 10 d after treatment; for pest or weed control at 31 g/ha: 31 g ai/ha, 0 is no effect, 100 is complete control
Summary of the method: as §1

[18] = test system: Galium (catchweed bedstraw, Galium aparine); test: Test A postemergence; conditions: Galium, post-emergence, 240 h, Postemergence, read-out: Galium plant response rating (0 to 100 scale); for pest or weed control at 125 g/ha: 125 g ai/ha, visual rating about 10 d after treatment; for pest or weed control at 31 g/ha: 31 g ai/ha, 0 is no effect, 100 is complete control
Summary of the method: as §1

| SMILES | pest or weed control at 31 g/ha [1] [%] | pest or weed control at 125 g/ha [1] [%] | pest or weed control at 31 g/ha [2] [%] | pest or weed control at 125 g/ha [2] [%] | pest or weed control at 31 g/ha [3] [%] | pest or weed control at 125 g/ha [3] [%] | pest or weed control at 31 g/ha [4] [%] | pest or weed control at 125 g/ha [4] [%] | pest or weed control at 31 g/ha [5] [%] | pest or weed control at 125 g/ha [5] [%] | pest or weed control at 31 g/ha (Kochia (Kochia scoparia) [6]) [%] | pest or weed control at 125 g/ha (Kochia (Kochia scoparia) [6]) [%] | pest or weed control at 250 g/ha [7] [%] | pest or weed control at 250 g/ha (rice (Oryra sativa)) [%] | pest or weed control at 250 g/ha [8] [%] | pest or weed control at 250 g/ha [9] [%] | pest or weed control at 125 g/ha [10] [%] | pest or weed control at 31 g/ha [10] [%] | pest or weed control at 125 g/ha [11] [%] | pest or weed control at 31 g/ha [11] [%] | also measured |
| --- | --- | --- | --- | --- | --- | --- | --- | --- | --- | --- | --- | --- | --- | --- | --- | --- | --- | --- | --- | --- | --- |
| CC(C)Oc1ccc([C@H]2CN(C)C(=O)[C@@H]2C(=O)Nc2ccccc2F)cc1F [Compound 1333] | 0 | 0 | 0 | 0 | 0 | 0 | 40 | 70 | 90 | 90 | 0 | 30 | 45 | 20 | 80 | 70 | 0 | 0 | 10 | 0 | pest or weed control at 125 g/ha [12]: 0%; pest or weed control at 31 g/ha [12]: 0%; pest or weed control at 125 g/ha [13]: 70%; pest or weed control at 31 g/ha [13]: 0%; plant injury at 125 g/ha (corn (Zea mays)): 0%; plant injury at 31 g/ha (corn (Zea mays)): 0%; pest or weed control at 125 g/ha [14]: 0%; pest or weed control at 31 g/ha [14]: 0%; plant injury at 125 g/ha [15]: 0%; plant injury at 31 g/ha [15]: 0%; pest or weed control at 125 g/ha [16]: 60%; pest or weed control at 31 g/ha [16]: 0%; pest or weed control at 125 g/ha (Kochia (Kochia scoparia) [17]): 0%; pest or weed control at 31 g/ha (Kochia (Kochia scoparia) [17]): 0%; pest or weed control at 125 g/ha [18]: 0%; pest or weed control at 31 g/ha [18]: 0% |
| COc1c([C@H]2CN(C)C(=O)[C@@H]2C(=O)Nc2cccc(F)c2F)cccc1C(F)(F)F [Compound 1339] | 0 | 0 | 0 | 0 | 0 | 20 | 90 | 90 | 80 | 90 | 0 | 50 | 95 | 60 | 100 | 0 | 20 | 0 | 30 | 20 | pest or weed control at 125 g/ha [12]: 0%; pest or weed control at 31 g/ha [12]: 0%; pest or weed control at 125 g/ha [13]: 90%; pest or weed control at 31 g/ha [13]: 70%; plant injury at 125 g/ha (corn (Zea mays)): 0%; plant injury at 31 g/ha (corn (Zea mays)): 0%; pest or weed control at 125 g/ha [14]: 0%; pest or weed control at 31 g/ha [14]: 0%; plant injury at 125 g/ha [15]: 0%; plant injury at 31 g/ha [15]: 0%; pest or weed control at 125 g/ha [16]: 80%; pest or weed control at 31 g/ha [16]: 70%; pest or weed control at 125 g/ha (Kochia (Kochia scoparia) [17]): 20%; pest or weed control at 31 g/ha (Kochia (Kochia scoparia) [17]): 0%; pest or weed control at 125 g/ha [18]: 50%; pest or weed control at 31 g/ha [18]: 30% |
